The values that follow come from patent US20100022556A1, “Therapeutic combinations comprising a long acting dihydropyridine calcium-channel blocker and a statin” (CHIESI FARMACEUTICI S.P.A., priority 2005, published 2010).

Experiment [1] has as its system ischemic-reperfused myocardium. The settings on record: isolated rat hearts; simvastatin: normocholesterolemic rat hearts; cited from earlier work.
In experiment [2] the test system is plasma intercellular adhesion molecule type-1 (ICAM-1). Kind of experiment: Plasma ICAM-1 in hypertensive, hypercholesterolemic patients. The format is in vivo, human. The note with it: for change in ICAM-1 mean value vs placebo: 12 week treatment; for ICAM-1: plasma, patients, end of 12 week treatment. How it is done:
(§1) The aim of this study was to evaluate the effect of the manidipine-simvastatin combination on plasma tissue plasminogen activator (t-PA) and inhibitor (PAI-1) activity, on plasma intercellular adhesion molecule type-1 (ICAM-1) and on serum C-reactive protein (CRP) in hypertensive, hypercholesterolemic patients.
(§2) After 4 week placebo run-in period, 30 hypertensive hypercholesterolemic patients were randomized to a manidipine 20 mg or simvastatin 40 mg or a manidipine-simvastatin fixed combination treatment, according to 3×3 cross-over design; each treatment had 12 week duration.
(§3) The last day of the placebo run-in period and of each treatment period blood pressure was measured and a venous blood sample was taken (at the same hour in the morning) to evaluate plasma t-PA and PAI-1 activity, TC plasma, ICAM-1 and CRP.

For the next experiment, the system named is inhibitor (PAI-1). Kind of experiment: Plasma PAI-1 activity in hypertensive, hypercholesterolemic patients. The format is in vivo, human. The settings on record: for change in PAI-1 activity vs placebo: 12 week treatment; for PAI-1: plasma activity, patients, end of 12 week treatment. How it is done: as §1, §2, §3
Experiment [3] has as its system serum C-reactive protein (CRP). Kind of experiment: Serum CRP in hypertensive, hypercholesterolemic patients. The format is in vivo, human. The settings on record: end of 12 week treatment. How it is done:
as §1, §2, §3

A short description of experiment [4]: Blood pressure in hypertensive, hypercholesterolemic patients (3x3 cross-over trial). The format is in vivo, human. The settings on record: manidipine 20 mg, simvastatin 40 mg or fixed combination, end of 12 week treatment. How it is done: as §1, §2, §3
For experiment [5], the system named is plasma tissue plasminogen activator (t-PA). The experiment can be described thus: Plasma t-PA activity in hypertensive, hypercholesterolemic patients. The format is in vivo, human. The note with it: for t-PA: plasma activity, patients, end of 12 week treatment. How it is done:
as §1, §2, §3

The next experiment deals with total cholesterol. Kind of experiment: Total cholesterol (TC) in hypertensive, hypercholesterolemic patients. The format is in vivo, human. The note with it: for TC: patients, end of 12 week treatment. How it is done:
as §3

In experiment [6] the test system is perfused rat heart preparations submitted to ischemia-reperfusion. Kind of experiment: Myocardial ischemia-reperfusion damage, perfused hearts from orally treated rats. The format is in vivo, Male Wistar rats. The settings on record: oral gavage once a day for 5 days; manidipine 1 and 3 mg/kg, simvastatin 1 mg/kg, alone or combined. How it is done: The hearts were excised from rats orally treated for 5 consecutive days with manidipine and simvastatin alone or in combination. […] Data are means±SEM of 8 hearts per group. *P<0.05, **P<0.01, ***P<0.001 vs control; #P<0.01 vs simvastatin alone.
The aim of this study was to evaluate the protective effects of the manidipine-simvastatin combination against myocardial ischemia-reperfusion damage in the rat.
The study was performed according to a method described previously (Rossoni G et al Pharmacol Exp Ther. 2003 307(2), 633-9).
Male Wistar rats were randomly divided into six groups (n=6-8 rats per group). Manidipine (1 mg/kg and 3 mg/kg) simvastatin (1 mg/kg) were administered alone or in combination by oral gavage once a day for five consecutive days.
The following parameters were determined:
i) the left ventricular end-diastolic pressure (LVEDP) and the left ventricular developed pressure (LVDevP; peak left ventricular systolic pressure minus LVEDP);
ii) the activities of creatine kinase (CK) and lactate dehydrogenase (LDH) in the heart perfusate.
The data were expressed as mean±S.E.M (standard error of the mean).

[7] abbreviates: change vs placebo, 12 week treatment.

`COC(=O)C1=C(C)NC(C)=C(C(=O)OCCN2CCN(C(c3ccccc3)c3ccccc3)CC2)C1c1cccc([N+](=O)[O-])c1` (racemic) [Manidipine, (±)-1,4-dihydro-2,6-dimethyl-4-(3-nitrophenyl)-3,5-pyridinedicarboxylic acid 2-[4-(diphenylmethyl)-1-piperazinyl]ethyl methyl ester]: in experiment [1], the “protection of ischemic-reperfused myocardium” value is recorded as “relevant cardioprotection”. Also, in experiment [2], the “change in ICAM-1 mean value vs placebo” value is -17.6 ng/mL and the ICAM-1 turned out to be 220.2 ± 29.8 ng/mL. Moreover, in the experiment on inhibitor (PAI-1), the “change in PAI-1 activity vs placebo” value was “did not affect” and the PAI-1 was found to be 24.9 ± 12.6 U/ml. For the same molecule, the CRP in experiment [3] came out at 0.34 ± 0.20 mg/dL. For the same molecule, in experiment [4], the DBP amounted to 84.1 ± 4.8 mmHg and the SBP was 140.5 ± 10.7 mmHg. Also, the “change in t-PA activity vs placebo” value in experiment [5] (setting [7]) was “+0.22 U/ml”. Further, the t-PA in experiment [5] is 0.71 ± 0.19 U/ml. In the experiment with total cholesterol, this molecule yielded a TC of 253.8 ± 29.6 mg/dL. In experiment [6], the “rise in LVEDP during ischemia and reperfusion” value is on record as “significantly reduced according to the dose used”.

Consider `CCC(C)(C)C(=O)O[C@H]1C[C@@H](C)C=C2C=C[C@H](C)[C@H](CC[C@@H]3C[C@@H](O)CC(=O)O3)[C@H]21` [Simvastatin, simvastatin], for which, in experiment [2], the “change in ICAM-1 mean value vs placebo” value was -30.4 ng/mL and the ICAM-1 was 207.4 ± 26 ng/mL. Besides, in the experiment on inhibitor (PAI-1), the “change in PAI-1 activity vs placebo” value was −8.5 U/ml and the PAI-1 was 16.1 ± 7.3 U/ml. Besides, the CRP in experiment [3] is 0.16 ± 0.12 mg/dL. Also, in experiment [4], the DBP is given as 98.2 ± 6.2 mmHg and the SBP turned out to be 155.4 ± 11.9 mmHg. Further, the t-PA in experiment [5] worked out at 0.51 ± 0.14 U/ml. Moreover, the “change in total cholesterol mean value vs placebo” value in the experiment on total cholesterol (setting [7]) was -52.7 mg/dL. This molecule came in with a TC in the experiment on total cholesterol of 202.2 ± 26.4 mg/dL.

As to `COC(=O)C1=C(C)NC(C)=C(C(=O)OC2CCCN(Cc3ccccc3)C2)C1c1cccc([N+](=O)[O-])c1` (centres unmarked) [benidipine], the “protection of ischemic-reperfused myocardium” value in experiment [1] is on record as “relevant cardioprotection”.
